According to publication PMC8708875 (Pharmaceutics, 2021):

What was measured:
[1] = test system: differentiated C2C12 myotubes; test: qPCR gene expression in differentiated C2C12 myotubes; assay type: cell-based, mouse; details: Ric peptides 100 µM, insulin positive control, qPCR normalised to GAPDH, control = 1, mean ± SEM
Protocol: C2C12 cells were used as a well-described model of skeletal muscle to evaluate the effect of peptides in gene expression, cell signaling, and glucose uptake. These cells were kindly provided by Prof. Patricia Brum, School of Physical Education and Prof. Anselmo Moriscot, Biomedical Science Institute, University of São Paulo, São Paulo, Brazil. C2C12 cells were cultured and maintained in high glucose Dulbecco's modified Eagle's medium (DMEM; Thermo Fisher Scientific, São Paulo, SP, Brazil) supplemented with 10% fetal bovine serum (FBS), 100 U/mL penicillin, and […] streptomycin in a humidified atmosphere of 5% CO2 at 37 °C. The cells were used in low pass (between passages 2 and 4) for all experiments to maintain the potential for differentiation of cultures. Cells grown to approximately 70% confluence in T75 culture flasks were treated with trypsin and seeded in various P100 culture dishes. Cells were then cultured in the presence of 10% FBS until they reach about 90% confluence, at which point the medium was replaced with DMEM containing 2% horse serum for the induction of differentiation in myotubes. During this time, the fused myoblasts formed elongated, multi-nucleated myotubes, and within 7 days more than 95% of the cells already fused into myotubes. Cultures of C2C12 were treated with phosphate buffer saline (137 mM NaCl, 2.7 mM KCl, 10 mM Na2HPO4, and 1.8 mM KH2PO4, pH 7.4; PBS; control), insulin or […], for the indicated period of time. From these treatments the cells were processed for molecular analyses. Real-time PCR (qPCR) experiments were performed to evaluate the mRNA expression levels, at basal and under stimulus, for peroxisome proliferator activator receptor gamma (PPARγ), peroxisome proliferator activator receptor […] responsive element binding protein 1 (Creb1), aldolase A, fructose-bisphosphate (ALDOA), cytochrome c oxidase subunit IV isoform 1 (Cox4i1), phosphoglycerate mutase 2 (PGAM2), troponin I, skeletal, fast 2 (TNNI2), […] (TNNT3), small muscle protein X-linked (SMPX), myosin, […] (MYH1), insulin-growth factor 1 (IGF1), Glucose transporter 4 (GLUT4), and lipoprotein lipase (LPL). Primers sequences are described in Supplementary Materials (Table S1). Cells were homogenized and total RNA extracted using Trizol according to the manufacturer's instructions (TRIzol, Life Technologies, Rockville, MD, USA). After extraction of RNA, all samples were purified and treated with DNAse using RNeasy Mini Kit (Qiagen, Foster City, CA, USA). The integrity of the RNA was verified by 1% agarose gel electrophoresis stained with ethidium bromide and visualized in ultraviolet light. […] The standard curves for all the primers used herein were previously constructed to determine the efficiency of the amplification of the target and reference genes. Quantitative PCRs were performed using the Prism 7900 sequence detection system (Applied Biosystems, Foster City, CA, USA) with 100 nM primer and 20 ng cDNA. The expression of mRNA targets was normalized by expression of gene glyceraldehyde 3-phosphate dehydrogenase (GAPDH) or hipoxantina-guanina fosforibosiltransferase (HPRT) and expressed as relative values using the 2 DDCt method. The expression levels of target genes were normalized with housekeeping genes GAPDH or HPRT, and alterations were expressed relative to control unstimulated cells. […] Therefore, the possible effects of Ric1-Ric4 (100 μM) on gene expression were evaluated. For all these experiments, insulin was used as “gold standard”/positive control, and GAPDH expression was used as normalization control (Table 2, Control “1”/100%). Relative to GAPDH expression, insulin increased the expression of all genes evaluated (Table 1). […]

[2] = test system: epididymal adipose tissue and tibial skeletal muscle of WT mice; test: mRNA expression of energy metabolism genes in tissues after ip administration (qPCR); assay type: in vivo, mouse; details: 600 µg/kg ip
Protocol: Real-time PCR (qPCR) experiments were performed to evaluate the mRNA expression levels, at basal and under stimulus, for peroxisome proliferator activator receptor gamma (PPARγ), peroxisome proliferator activator receptor alpha (PPARa), cAMP responsive element binding protein 1 (Creb1), aldolase A, fructose-bisphosphate (ALDOA), cytochrome c oxidase subunit IV isoform 1 (Cox4i1), phosphoglycerate mutase 2 (PGAM2), troponin I, skeletal, fast 2 (TNNI2), […] (TNNT3), small muscle protein X-linked (SMPX), myosin, […] (MYH1), insulin-growth factor 1 (IGF1), Glucose transporter 4 (GLUT4), and lipoprotein lipase (LPL). Primers sequences are described in Supplementary Materials (Table S1). […] Quantitative PCRs were performed using the Prism 7900 sequence detection system (Applied Biosystems, Foster City, CA, USA) with 100 nM primer and 20 ng cDNA. The expression of mRNA targets was normalized by expression of gene glyceraldehyde 3-phosphate dehydrogenase (GAPDH) or hipoxantina-guanina fosforibosiltransferase (HPRT) and expressed as relative values using the 2 DDCt method. […]
Figure 6 Ric4 stimulated mRNA expression levels of genes related to energy metabolism. WT mice were treated with vehicle (Control) or Ric4 (600 ug/kg, ip) and gene expression was evaluated by qPCR. […]

[3] = in vitro; assay type: in vitro ADME, mouse; details: WT mice liver or kidney crude extracts; fragments sequenced by mass spectrometry after HPLC; data not shown
Protocol: Peptide hydrolyses were analyzed by reverse phase liquid chromatography (HPLC) using a C18 µBond-pak column (4.6 × 250 mm; Millipore Corp.) with a linear gradient of 5–65% acetonitrile in 0.1% TFA for 20 min at a flow rate of 1 mL/min, and absorbance monitored at a wavelength of 214 nm, as previously described. Cleaved peptide bonds were identified by mass spectrometry sequencing after isolating the cleavage fragments manually after HPLC, as previously described (data not shown). Control enzyme assays were conducted using bradykinin ([…]; 50 µM) as a standard substrate.

Substance	relative expression of Aldolase A, fructose-bisphosphate (ALDOA) [1]	relative expression of Cytochrome c oxidase subunit IV isoform 1 (Cox4i1) [1]	relative expression of Peroxisome proliferator activator receptor gamma (PPARγ) [1]	relative expression of Phosphoglycerate mutase 2 (PGAM2) [1]	relative expression of Small muscle protein X-linked (SMPX) [1]	relative expression of Troponin I, skeletal, fast 2 (TNNI2) [1]	relative expression of Troponin I, skeletal, fast 3 (TNNT3) [1]	relative expression of cAMP responsive element binding protein 1 (Creb1) [1]	GLUT4 mRNA levels in epididymal adipose tissue [2]	expression levels of genes related to energy metabolism in epididymal adipose tissue (LPL, PPARγ, PPARa, GLUT4, IGF1) [2]	initial enzymatic cleavage site [3]
Insulin	7.65 ± 0.96	6.71 ± 1.24	6.98 ± 1.23	8.26 ± 0.99	5.96 ± 0.98	6.36 ± 1.13	6.22 ± 0.98	6.48 ± 1.08			
LASVSTVLTSKYR [Ric4, intracellular peptide derived from hemoglobin alpha subunit, last 13 C-terminal amino acids]	4.22 ± 0.74	1.41 ± 1.12	1.21 ± 1.02	2.65 ± 0.87	3.21 ± 0.99	3.14 ± 0.65	2.38 ± 0.72	1.03 ± 0.85	increased	stimulated the expression levels	Leu8-Thr9 peptide bond
